Source: publication PMC6177011, “Idebenone and coenzyme Q10 are novel PPARα/γ ligands, with potential for treatment of fatty liver diseases” (Disease Models & Mechanisms, 2018)
Values belong to the molecule of their own block, whether it stands above or below them.

Columns and labels:
Format in all cases: cell-based
hPPARδ/β = target: T1, hPPARδ/β (Homo sapiens, UniProt Q03181); assay: GAL4-LBD UAS-luciferase reporter in HEK293
T1 construct: gene PPARD; GAL4-hPPARδ LBD fusion
T1 sequence (Q03181 171-441 limits assumed): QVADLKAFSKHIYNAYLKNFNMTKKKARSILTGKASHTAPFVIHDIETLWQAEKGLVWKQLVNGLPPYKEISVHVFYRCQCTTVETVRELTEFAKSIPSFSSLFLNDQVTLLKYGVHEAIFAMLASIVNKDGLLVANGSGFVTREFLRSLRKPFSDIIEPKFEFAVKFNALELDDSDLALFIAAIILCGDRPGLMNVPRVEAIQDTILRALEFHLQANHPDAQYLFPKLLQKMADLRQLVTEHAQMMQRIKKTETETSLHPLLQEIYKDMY

PPARγ = target: T2, PPARγ (Homo sapiens, UniProt P37231); assay: antagonism of the human PPARγ LBD ligand-trap GFP reporter in transgenic zebrafish
T2 construct: gene PPARG; PPARγ (aa 189-477) LBD fusion
T2 sequence (P37231 217-505): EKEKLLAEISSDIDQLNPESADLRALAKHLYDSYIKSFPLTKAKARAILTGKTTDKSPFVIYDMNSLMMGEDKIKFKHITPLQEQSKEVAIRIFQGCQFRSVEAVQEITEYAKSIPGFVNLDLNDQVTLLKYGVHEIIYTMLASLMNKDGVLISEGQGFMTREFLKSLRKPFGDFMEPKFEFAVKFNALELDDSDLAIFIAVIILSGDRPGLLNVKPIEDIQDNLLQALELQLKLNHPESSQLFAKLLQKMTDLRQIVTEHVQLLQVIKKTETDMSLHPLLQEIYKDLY

PPARα = target: T3, PPARα (Homo sapiens, UniProt Q07869); assay: co-purification with purified LBD and LC-MS; EC50 from GAL4-LBD luciferase reporter in HEK293
T3 construct: gene PPARA; His-tagged PPARα LBD
T3 sequence (Q07869 196-468 limits assumed): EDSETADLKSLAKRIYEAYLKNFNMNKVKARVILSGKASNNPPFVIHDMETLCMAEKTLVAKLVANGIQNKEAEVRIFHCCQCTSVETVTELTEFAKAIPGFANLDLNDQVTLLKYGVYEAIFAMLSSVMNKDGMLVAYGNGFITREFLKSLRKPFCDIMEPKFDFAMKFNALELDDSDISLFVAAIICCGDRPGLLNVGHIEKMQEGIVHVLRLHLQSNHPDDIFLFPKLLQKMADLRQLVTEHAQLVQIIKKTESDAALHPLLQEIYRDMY

SMILES: O=C(O)COc1ccc(SCC=C(c2ccc(Br)cc2)c2ccc(Br)cc2)cc1Cl [CAY10592]
- EC50 (hPPARδ/β): 0.0128 µM

SMILES: O=C(Nc1ccccc1)c1cc([N+](=O)[O-])ccc1Cl [GW9662]
- antagonism of the human PPARγ LBD ligand-trap GFP reporter in transgenic zebrafi (PPARγ): The GW9662 suicide antagonist blocks agonist activity of rosiglitazone and idebenone, but not of RA

- EC50 (PPARα): 2.5 µM
SMILES: COC1=C(OC)C(=O)C(CCCCCCCCCCO)=C(C)C1=O [idebenone]
